± gives the expanded uncertainty stated by the source.
Key:
[1] = molar enthalpy of vaporization or sublimation; conditions: 298.15 K, DSC
[2] = Transpiration method

c1ccc2c(c1)ccc1ccccc12 [phenanthrene]
Conditions | molar enthalpy [kcal/mol]
[1], Crystal 2 | 22.1 ± 0.717

[2]
Conditions | vapor or sublimation pressure [kPa]
306.2 K, Crystal 2 | 5e-05 ± 1e-05
309.4 K, Crystal 2 | 7e-05 ± 1e-05
313.2 K, Crystal 2 | 0.00012 ± 1e-05
316.3 K, Crystal 2 | 0.00016 ± 1e-05
319.3 K, Crystal 2 | 0.00021 ± 1e-05
322.3 K, Crystal 2 | 0.00031 ± 2e-05
325.2 K, Crystal 2 | 0.00043 ± 2e-05
328.4 K, Crystal 2 | 0.00055 ± 3e-05
329.2 K, Crystal 2 | 0.00063 ± 4e-05
330.7 K, Crystal 2 | 0.00073 ± 4e-05
334.2 K, Crystal 2 | 0.00101 ± 5e-05
337.2 K, Crystal 2 | 0.00135 ± 7e-05
340.3 K, Crystal 2 | 0.00178 ± 9e-05
343.4 K, Crystal 2 | 0.00229 ± 0.00012
346.3 K, Crystal 2 | 0.00306 ± 0.00016
349.4 K, Crystal 1 | 0.00403 ± 0.00022
352.4 K, Crystal 1 | 0.00545 ± 0.00029
355.5 K, Crystal 1 | 0.00705 ± 0.00037
356.8 K, Crystal 1 | 0.0076 ± 0.0004
358.6 K, Crystal 1 | 0.00914 ± 0.00048
359.2 K, Crystal 1 | 0.00907 ± 0.00046
362.3 K, Crystal 1 | 0.01171 ± 0.00062
365.3 K, Crystal 1 | 0.01534 ± 0.00082
368.3 K, Crystal 1 | 0.01988 ± 0.001
370.4 K, Crystal 1 | 0.02298 ± 0.0012

c1ccc(-c2ccccc2-c2ccccc2)cc1 [o-terphenyl]
Conditions | molar enthalpy [kcal/mol]
[1], Crystal | 25.3 ± 0.741

[2], Liquid
Conditions | vapor or sublimation pressure [kPa]
343.5 K | 0.00166 ± 9e-05
345.5 K | 0.00195 ± 0.0001
346.4 K | 0.0021 ± 0.00011
348.4 K | 0.0025 ± 0.00013
349.5 K | 0.0027 ± 0.00014
351.5 K | 0.00315 ± 0.00016
352.5 K | 0.00339 ± 0.00018
355.4 K | 0.00427 ± 0.00022
358.4 K | 0.00528 ± 0.00028
360.4 K | 0.0062 ± 0.00032
361.4 K | 0.00658 ± 0.00034
361.5 K | 0.00664 ± 0.00035
363.2 K | 0.00752 ± 0.00039
365.4 K | 0.00888 ± 0.00046
366.4 K | 0.00943 ± 0.00049
368.4 K | 0.01095 ± 0.00057
369.4 K | 0.01187 ± 0.00062
371.4 K | 0.01363 ± 0.0007
373.3 K | 0.01527 ± 0.00079
374.4 K | 0.01677 ± 0.00087
376.3 K | 0.01869 ± 0.00097
377.4 K | 0.02037 ± 0.0011

Source: the NIST ThermoML archive (doi:10.1016/j.tca.2014.05.033)
